As a reminder, the IC50 is the concentration that gives 50% inhibition. Lower therefore signals higher potency.

Values after ≈ are worked out from the molar mass of the structure shown. Where only a bound is given, the exact number is not on record here.

Among the data in ChEMBL document CHEMBL1148083, “Patuletin acetylrhamnosides from Kalanchoe brasiliensis as inhibitors of human lymphocyte proliferative activity” (J Nat Prod, 1994) are IC50 values, retold here.

A short description of this test: Inhibition of PHA-induced human lymphocyte proliferation. The class given is functional, cell-based.
Consider `COc1c(O[C@@H]2O[C@@H](C)[C@H](O)[C@@H](O)[C@H]2OC(C)=O)cc2oc(-c3ccc(O)c(O)c3)c(O[C@@H]3O[C@@H](C)[C@H](OC(C)=O)[C@@H](O)[C@H]3O)c(=O)c2c1O` [KALAMBROSIDE A], for which 0.5 µg/mL (≈ 0.706 µM) corresponded to half-maximal inhibition (IC50). The figure for `COc1c(O[C@@H]2O[C@@H](C)[C@H](O)[C@@H](O)[C@H]2O)cc2oc(-c3ccc(O)c(O)c3)c(O[C@@H]3O[C@@H](C)[C@H](OC(C)=O)[C@@H](O)[C@H]3O)c(=O)c2c1O` [KALAMBROSIDE C] is over 10 µg/mL. The figure for `COc1c(O[C@@H]2O[C@@H](C)[C@H](O)[C@@H](OC(C)=O)[C@H]2O)cc2oc(-c3ccc(O)c(O)c3)c(O[C@@H]3O[C@@H](C)[C@H](OC(C)=O)[C@@H](O)[C@H]3O)c(=O)c2c1O` is 0.25 µg/mL (≈ 0.353 µM); for `COc1c(O[C@@H]2O[C@@H](C)[C@H](O)[C@@H](OC(C)=O)[C@H]2O)cc2oc(-c3ccc(O)c(O)c3)c(O[C@@H]3O[C@@H](C)[C@H](O)[C@@H](O)[C@H]3O)c(=O)c2c1O` it is 10 µg/mL (≈ 15 µM). The figure for `COc1c(O[C@@H]2O[C@@H](C)[C@H](O)[C@@H](O)[C@H]2OC(C)=O)cc2oc(-c3ccc(O)c(O)c3)c(O[C@@H]3O[C@@H](C)[C@H](O)[C@@H](O)[C@H]3O)c(=O)c2c1O` [KALAMBROSIDE B] is 1 µg/mL (≈ 1.5 µM).
